Measurements from patent publication US3950387A, “Cysteine derivatives” (Recherches Pharmaceutiques et Scientifiques, priority 1972, dated 1976).
Where a name gives a salt, the structure may show the parent alone.

Legend:
[1] = test system: atheromatic deposits in the aorta; assay: Effect on atheromatic deposits in the aorta (visual examination, scale 0 to 5) in cholesterol-fed rabbits; type: in vivo, rabbit (male albino Bouscat); conditions: for Extent of atheromatic deposit: rabbit; for Activity ranking (anti-atheromatic): conclusion over both tests in rabbits
From the text: (§1) 2. Effect on atheromatic deposits in the aorta and on plasma cholesterol in the rabbit
(§2) In order to create atheromatic lesions experimentally, male albino Bouscat rabbits having an average weight of 2.5 kg are fed on a Provende UAR rabbit diet plus 1 or 2% of cholesterol.
(§3) At the end of 11 to 12 weeks, the animals are sacrificed by having their carotid arteries cut after being anaesthetised with Nembutal and the aorta is removed from lowermost point to the iliac fork, cut open longitudinally and spread out upon a cork board. After fixing with formaldehyde and staining with a 2% aqueous solution of acid fuchsin, pearly white atheromatic spots are apparent against the red background which enables the extent of the deposit to be evaluated quantitatively on a scale from 0 to 5 with 0 corresponding to an absence of lesions and 5 to diffuse lipid deposits covering the whole of the endothelium.
(§4) In a first test, 60 male rabbits each weighing 2.5 kg are fed on the diet detailed below:
(§5) 5 weeks : diet containing 2% of cholesterol
(§6) 3 weeks : diet containing 1% of cholesterol
(§7) From the beginning the animals are divided into 6 batches of 10 animals each which respectively receive, for the whole duration of the diet, the following products for 5 days per week by the digestive route using an oesophagal probe:
(§8) All the products are administered in suspension in the same volume of gum arabic (5 ml).
(§9) At the end of 12 weeks, visual examination of the atheromatic lesions in the aorta gave the results shown in Table II, the numerical data giving the average extent of deposit in each batch.
(§10) In a second test, using the same experimental method, the two following derivatives were studied in the doses indicated below: […]

[2] = test system: plasma cholesterol; assay: Plasma cholesterol in cholesterol-fed rabbits (Pearson method, Technicon auto-analyser); type: in vivo, rabbit (male albino Bouscat); conditions: rabbit
Experimental: as §1, §2
Moreover, a check on the plasma cholesterol is carried out at regular intervals during the test using the Pearson method as adopted to the Technicon auto-analyser by Boy, Bonnafe and Mazet (Applicant's own method).
as §4, §5, §6, §7, §8, §9, §10

[3] = Toxicity: maximum tolerated dose in the mouse, oral route; conditions: in vivo
[4] = test system: aortic cholesterol; assay: Aortic cholesterol in cholesterol-fed rabbits (Folch extraction, Liebermann-Burchard method); type: in vivo, rabbit (male albino Bouscat); conditions: rabbit
From the text: as §1, §2, §3
After the inside layers of the wall of the aorta have been separated, all the lipids are extracted by the method of Folch et at. The amount of cholesterol is then determined using the Liebermann-Burchard method.
as §4, §5, §6, §7, §8, §9, §10

[5] = Solubility in the standard solvents; type: physicochemical; conditions: all the standard solvents
[6] = first test, 200 mg/kg oral (oesophagal probe), 5 days per week, 12 weeks, scale 0 (no lesions) to 5 (diffuse deposits), batch average, diet only 3.5
[7] = first test, 200 mg/kg oral (oesophagal probe), 5 days per week, 12 weeks, diet only 1.47
[8] = first test, 200 mg/kg oral (oesophagal probe), 5 days per week, 12 weeks, diet only 20.43
[9] = second test, 50 mg/kg, same experimental method, scale 0 to 5, diet only 4
[10] = second test, 50 mg/kg, same experimental method, diet only 2.5
[11] = second test, 50 mg/kg, same experimental method, diet only 22.1

| Compound | Extent of atheromatic deposit [1, 6] | Plasma cholesterol [2, 7] [g/L] | MTD [3] [mg/kg] | Aortic cholesterol [4, 8] [mg/kg] | Activity ranking (anti-atheromatic) [1] | Solubility [5] | Extent of atheromatic deposit [1, 9] | Plasma cholesterol [2, 10] [g/L] | Aortic cholesterol [4, 11] [mg/kg] |
| --- | --- | --- | --- | --- | --- | --- | --- | --- | --- |
| N[C@@H](CSCC=Cc1ccccc1)C(=O)O [LJ 536, L β-(3-phenyl-propen-2-ylthio) α-amino propanoic acid] | 2.05 | 1.2 | 4000 | 12.21 | – | – | – | – | – |
| CC(=Cc1ccccc1)CCSC[C@H](N)C(=O)O [LJ 540, L β-(4-phenyl-3-methylbuten-3-ylthio) α-aminopropanoic acid] | 2.60 | 1.29 | ≥ 10000 | 15.00 | – | – | – | – | – |
| C=CCSC[C@H](NC(=O)CC[C@H](N)C(=O)O)C(=O)NCC(=O)O [LJ 545, L γ-glutamyl-S-allylcysteinyl glycine] | 2.70 | 1.36 | ≥ 10000 | 14.38 | – | – | – | – | – |
| N[C@@H](CSCc1cccnc1)C(=O)O [LJ 546, L β-[(pyridyl-3)methylthio]α-amino propanoic acid] | 1.85 | 0.99 | 9000 | 10.72 | the most active | – | – | – | – |
| CC(SC[C@H](N)C(=O)O)c1ccc(Cl)cc1 (stereo partly drawn) [LJ 550, L β-[1-(p-chlorophenyl)ethylthio]α-amino propanoic acid] | 2 | 1.17 | 4000 | 11.90 | the most active | practically insoluble in all the standard solvents | – | – | – |
| CC(C)=CCC/C(C)=C/CSC[C@H](N)C(=O)O [LJ 558, S-geranylcysteine] | – | – | 8000 | – | – | – | – | – | – |
| C=CCSC[C@H](N)C(=O)OCC [LJ 565, Ethyl L β-(propen-2-ylthio) α-amino propanoate hydrochloride] | – | – | 1500 | – | the most active | – | 2.3 | 2.1 | 15 |
| C=CCSC[C@H](N)C(=O)OC(C)C [LJ 566, Isopropyl L β-(propen-2-ylthio) α-aminopropanoate hydrochloride] | – | – | 1500 | – | the most active | – | 2.8 | 2.3 | 17.3 |
